Data taken from US11649255B2, “Indazoles as hematopoietic progenitor kinase 1 (HPK1) inhibitors and methods using same” (1st Biotherapeutics, Inc., priority 2020, dated 2023).

Target: recombinant human HPK1 (Homo sapiens (Human), UniProt Q92918)
Experiment: HPK1 kinase assay (ADP-Glo)
Type: biochemical
Settings: 25 μM ATP, MBP substrate
Experimental: HPK1 kinase activity was measured by Promega's ADP-Glo™ kinase assay. In this assay, 5 ng of recombinant human HPK1 (signalchem) is incubated with 5 μL of compounds (0.5% DMSO), 5 μL of MBP (0.5 μg/μl) and 5 μL of ATP (25 μM) in buffer (40 mM Tris, 7.5; 20 mM MgCl2; 0.1 mg/ml BSA; 5 μM DTT). The assay was started by incubating the reaction mixture in a 96-well plate at 30′ C for 40 minutes. After the incubation, 25 uL ADP-Glo reagent was added and the reaction was incubated at room temperature for 40-min to stop the reaction and degrade residual ATP. The ADP product was then converted to ATP by adding 50 uL per well of detection reagent. Luminescence was detected after 30-min room temperature incubation with the Molecular device I3X plate reader. The IC50 values were calculated from a series of percent inhibition values determined at a range of inhibitor concentration using software routines as implemented in the GraphPad Prism 7 software and SigmaPlot13.0.

Chain of recombinant human HPK1 (Q92918 whole entry): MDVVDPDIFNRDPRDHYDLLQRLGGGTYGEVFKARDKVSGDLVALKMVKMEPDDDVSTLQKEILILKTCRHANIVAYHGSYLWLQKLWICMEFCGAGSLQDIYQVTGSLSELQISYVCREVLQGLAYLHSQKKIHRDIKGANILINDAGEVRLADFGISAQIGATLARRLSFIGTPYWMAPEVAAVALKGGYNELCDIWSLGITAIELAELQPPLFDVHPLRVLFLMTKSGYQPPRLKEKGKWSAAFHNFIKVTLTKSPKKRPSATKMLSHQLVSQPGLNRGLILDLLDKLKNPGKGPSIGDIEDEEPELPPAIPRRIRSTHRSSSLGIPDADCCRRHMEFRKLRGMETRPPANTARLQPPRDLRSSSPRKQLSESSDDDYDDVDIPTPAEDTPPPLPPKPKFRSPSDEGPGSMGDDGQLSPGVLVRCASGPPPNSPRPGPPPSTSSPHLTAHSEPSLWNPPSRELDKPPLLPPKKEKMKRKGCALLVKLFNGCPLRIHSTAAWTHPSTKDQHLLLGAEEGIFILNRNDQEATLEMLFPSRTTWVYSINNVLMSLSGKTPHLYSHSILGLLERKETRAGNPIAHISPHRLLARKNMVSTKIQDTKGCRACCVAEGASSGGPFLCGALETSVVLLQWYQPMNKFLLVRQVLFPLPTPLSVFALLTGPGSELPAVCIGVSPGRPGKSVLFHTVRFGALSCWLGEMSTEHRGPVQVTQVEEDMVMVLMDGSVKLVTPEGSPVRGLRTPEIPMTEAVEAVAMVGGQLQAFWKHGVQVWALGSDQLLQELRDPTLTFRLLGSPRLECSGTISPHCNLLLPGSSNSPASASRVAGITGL

Row | Structure (SMILES) | IC50
1 | C=CC(=O)Nc1c(F)c(Cl)c(-c2ccc3nc(NC(=O)[C@@H]4C[C@@H]4F)sc3c2)c2cn[nH]c12 [Example 72, (1S,2S)-N-(6-(7-acrylamido-5-chloro-6-fluoro-1H-indazol-4-yl)benzo[d]thiazol-2-yl)-2-fluorocyclopropane-1-carboxamide] | 101 to 500 nM
2 | O=C(Nc1nc2ccc(-c3c(Cl)c(F)c(N4CCOCC4)c4[nH]ncc34)cc2s1)[C@@H]1C[C@@H]1F [Example 74, (1S,2S)-N-(6-(5-chloro-6-fluoro-7-morpholino-1H-indazol-4-yl)benzo[d]thiazol-2-yl)-2-fluorocyclopropane-1-carboxamide] | 101 to 500 nM
3 | CN1CCN(c2c(F)c(Cl)c(-c3ccc4nc(NC(=O)[C@@H]5C[C@@H]5F)sc4c3)c3cn[nH]c23)CC1 [Example 75, (1S,2S)-N-(6-(5-chloro-6-fluoro-7-(4-methylpiperazin-1-yl)-1H-indazol-4-yl)benzo[d]thiazol-2-yl)-2-fluorocyclopropane-1-carboxamide] | 101 to 500 nM
4 | O=C(Nc1nc2ccc(-c3c(Cl)c(F)c(N4CCNCC4)c4[nH]ncc34)cc2s1)[C@@H]1C[C@@H]1F [Example 76, (1S,2S)-N-(6-(5-chloro-6-fluoro-7-(piperazin-1-yl)-1H-indazol-4-yl)benzo[d]thiazol-2-yl)-2-fluorocyclopropane-1-carboxamide] | 101 to 500 nM
5 | O=C(Nc1nc2ccc(-c3c(Cl)c(F)c(N4CCC(O)C4)c4[nH]ncc34)cc2s1)[C@@H]1C[C@@H]1F (stereo partly drawn) [Example 78, (1S,2S)-N-(6-(5-chloro-6-fluoro-7-(3-hydroxypyrrolidin-1-yl)-1H-indazol-4-yl)benzo[d]thiazol-2-yl)-2-fluorocyclopropane-1-carboxamide] | 101 to 500 nM
6 | NC1CCN(c2c(F)c(Cl)c(-c3ccc4nc(NC(=O)[C@@H]5C[C@@H]5F)sc4c3)c3cn[nH]c23)CC1 [Example 83, (1S,2S)-N-(6-(7-(4-aminopiperidin-1-yl)-5-chloro-6-fluoro-1H-indazol-4-yl)benzo[d]thiazol-2-yl)-2-fluorocyclopropane-1-carboxamide] | 101 to 500 nM
7 | NCC1CCN(c2c(F)c(Cl)c(-c3ccc4nc(NC(=O)[C@@H]5C[C@@H]5F)sc4c3)c3cn[nH]c23)C1 (stereo partly drawn) [Example 91, (1S,2S)-N-(6-(7-(3-(aminomethyl)pyrrolidin-1-yl)-5-chloro-6-fluoro-1H-indazol-4-yl)benzo[d]thiazol-2-yl)-2-fluorocyclopropanecarboxamide] | 101 to 500 nM
8 | CN(CCO)c1c(F)c(Cl)c(-c2ccc3nc(NC(=O)[C@@H]4C[C@@H]4F)sc3c2)c2cn[nH]c12 [Example 93, (1S,2S)-N-(6-(5-chloro-6-fluoro-7-((2-hydroxyethyl)(methyl)amino)-1H-indazol-4-yl)benzo[d]thiazol-2-yl)-2-fluorocyclopropanecarboxamide] | < 100 nM
9 | CN(CC1CNC1)c1c(F)c(Cl)c(-c2ccc3nc(NC(=O)[C@@H]4C[C@@H]4F)sc3c2)c2cn[nH]c12 [Example 94, (1S,2S)-N-(6-(7-((azetidin-3-ylmethyl)(methyl)amino)-5-chloro-6-fluoro-1H-indazol-4-yl)benzo[d]thiazol-2-yl)-2-fluorocyclopropanecarboxamide] | < 100 nM
10 | O=C(Nc1nc2ccc(-c3c(Cl)c(F)c(NCC4CNC4)c4[nH]ncc34)cc2s1)[C@@H]1C[C@@H]1F [Example 95, (1S,2S)-N-(6-(7-((azetidin-3-ylmethyl)amino)-5-chloro-6-fluoro-1H-indazol-4-yl)benzo[d]thiazol-2-yl)-2-fluorocyclopropanecarboxamide] | < 100 nM
11 | COc1cc(C)c(-c2ccc3nc(NC(=O)[C@@H]4C[C@@H]4F)sc3c2)c2cn[nH]c12 [Example 96, (1S,2S)-2-fluoro-N-(6-(7-methoxy-5-methyl-1H-indazol-4-yl)benzo[d]thiazol-2-yl)cyclopropanecarboxamide] | < 100 nM
12 | COc1c(F)c(C)c(-c2ccc3nc(NC(=O)[C@@H]4C[C@@H]4F)sc3c2)c2cn[nH]c12 [Example 97, (1S,2S)-2-fluoro-N-(6-(6-fluoro-7-methoxy-5-methyl-1H-indazol-4-yl)benzo[d]thiazol-2-yl)cyclopropanecarboxamide] | < 100 nM
13 | CCOc1c(F)c(C)c(-c2ccc3nc(NC(=O)[C@@H]4C[C@@H]4F)sc3c2)c2cn[nH]c12 [Example 98, (1S,2S)-N-(6-(7-ethoxy-6-fluoro-5-methyl-1H-indazol-4-yl)benzo[d]thiazol-2-yl)-2-fluorocyclopropanecatboxamide] | < 100 nM
14 | CN(C)C(=O)CSc1c(F)c(Cl)c(-c2ccc3nc(NC(=O)[C@@H]4C[C@@H]4F)sc3c2)c2cn[nH]c12 [Example 99, (1S,2S)-N-(6-(5-chloro-7-((2-(dimethylamino)-2-oxoethyl)thio)-6-fluoro-1H-indazol-4-yl)benzo[d]thiazol-2-yl)-2-fluorocyclopropane-1-carboxamide] | < 100 nM

The next lines start with the values.

Row | IC50 | Structure (SMILES)
15 | < 100 nM | COCCSc1c(F)c(Cl)c(-c2ccc3nc(NC(=O)[C@@H]4C[C@@H]4F)sc3c2)c2cn[nH]c12 [Example 71, (1S,2S)-N-(6-(5-chloro-6-fluoro-7-((2-methoxyethyl)thio)-1H-indazol-4-yl)benzo[d]thiazol-2-yl)-2-]
16 | < 100 nM | CC(=O)NCCSc1c(F)c(Cl)c(-c2ccc3nc(NC(=O)[C@@H]4C[C@@H]4F)sc3c2)c2cn[nH]c12 [Example 73, (1S,2S)-N-(6-(7-((2-acetamidoethyl)thio)-5-chloro-6-fluoro-1H-indazol-4-yl)benzo[d]thiazol-2-yl)-2-fluorocyclopropane-1-carboxamide]
17 | < 100 nM | O=C(Nc1nc2ccc(-c3c(Cl)c(F)c(SCCO)c4[nH]ncc34)cc2s1)[C@@H]1C[C@@H]1F [Example 79, (1S,2S)-N-(6-(5-chloro-6-fluoro-7-((2-hydroxyethyl)thio)-1H-indazol-4-yl)benzo[d]thiazol-2-yl)-2-fluorocyclopropane-1-carboxamide]
18 | < 100 nM | COc1c(F)c(Cl)c(-c2ccc3nc(NC(=O)[C@@H]4C[C@@H]4F)sc3c2)c2cn[nH]c12 [Example 80, (1S,2S)-N-(6-(5-chloro-6-fluoro-7-methoxy-1H-indazol-4-yl)benzo[d]thiazol-2-yl)-2-fluorocyclopropane-1-carboxamide]
19 | < 100 nM | CCOc1c(F)c(Cl)c(-c2ccc3nc(NC(=O)[C@@H]4C[C@@H]4F)sc3c2)c2cn[nH]c12 [Example 81, (1S,2S)-N-(6-(5-chloro-7-ethoxy-6-fluoro-1H-indazol-4-yl)benzo[d]thiazol-2-yl)-2-fluorocyclopropane-1-carboxamide]
20 | < 100 nM | CN(CCN)c1c(F)c(Cl)c(-c2ccc3nc(NC(=O)[C@@H]4C[C@@H]4F)sc3c2)c2cn[nH]c12 [Example 82, (1S,2S)-N-(6-(7-((2-aminoethyl)(methyl)amino)-5-chloro-6-fluoro-1H-indazol-4-yl)benzo[d]thiazol-2-yl)-2-fluorocyclopropane-1-carboxamide]
21 | < 100 nM | NC1CCCN(c2c(F)c(Cl)c(-c3ccc4nc(NC(=O)[C@@H]5C[C@@H]5F)sc4c3)c3cn[nH]c23)C1 (stereo partly drawn) [Example 84, (1S,2S)-N-(6-(7-(3-aminopiperidin-1-yl)-5-chloro-6-fluoro-1H-indazol-4-yl)benzo[d]thiazol-2-yl)-2-fluorocyclopropane-1-carboxamide]
22 | < 100 nM | CN(C)CCN(C)c1c(F)c(Cl)c(-c2ccc3nc(NC(=O)[C@@H]4C[C@@H]4F)sc3c2)c2cn[nH]c12 [Example 85, (1S,2S)-N-(6-(5-chloro-7-((2-(dimethylamino)ethyl)(methyl)amino)-6-fluoro-1H-indazol-4-yl)benzo[d]thiazol-2-yl)-2-fluorocyclopropane-1-carboxamide]
23 | < 100 nM | O=C(Nc1nc2ccc(-c3c(Cl)c(F)c(SCCCO)c4[nH]ncc34)cc2s1)[C@@H]1C[C@@H]1F [Example 86, (1S,2S)-N-(6-(5-chloro-6-fluoro-7-((3-hydroxypropyl)thio)-1H-indazol-4-yl)benzo[d]thiazol-2-yl)-2-fluorocyclopropanecarboxamide]
24 | < 100 nM | O=C(O)NC1CN(c2c(F)c(Cl)c(-c3ccc4nc(NC(=O)[C@@H]5C[C@@H]5F)sc4c3)c3cn[nH]c23)C1 [Example 88, (1-(5-chloro-6-fluoro-4-(2-((1S,2S)-2-fluorocyclopropane-1-carboxamido)benzo[d]thiazol-6-yl)-1H-indazol-7-yl)azetidin-3-yl)carbamic acid]
25 | < 100 nM | CN(C(=O)O)C1CN(c2c(F)c(Cl)c(-c3ccc4nc(NC(=O)[C@@H]5C[C@@H]5F)sc4c3)c3cn[nH]c23)C1 [Example 89, (1-(5-chloro-6-fluoro-4-(2-((1S,2S)-2-fluorocyclopropane-1-carboxamido)benzo[d]thiazol-6-yl)-1H-indazol-7-yl)azetidin-3-yl)(methyl)carbamic acid]
26 | < 100 nM | O=C(O)NCC1CN(c2c(F)c(Cl)c(-c3ccc4nc(NC(=O)[C@@H]5C[C@@H]5F)sc4c3)c3cn[nH]c23)C1 [Example 90, ((1-(5-chloro-6-fluoro-4-(2-((1S,2S)-2-fluorocyclopropane-1-carboxamido)benzo[d]thiazol-6-yl)-1H-indazol-7-yl)azetidin-3-yl)methyl)carbamic acid]
27 | < 100 nM | CNCCN(C)c1c(F)c(Cl)c(-c2ccc3nc(NC(=O)[C@@H]4C[C@@H]4F)sc3c2)c2cn[nH]c12 [Example 92, (1S,2S)-N-(6-(5-chloro-6-fluoro-7-(methyl(2-(methylamino)ethyl)amino)-1H-indazol-4-yl)benzo[d]thiazol-2-yl)-2-fluorocyclopropane-1-carboxamide]
